In patent US20060223996A1, “IL-12 modulatory compounds” (Synta Pharmaceuticals Corp., priority 2004, published 2006):
pIC50: −log10 of the molar value.

Test system: IL-12
Experiment: Human in vitro assay: inhibition of IL-12 production in IFNγ/LPS- or IFNγ/SAC-stimulated human PBMC or THP-1 cells (ELISA)
Assay type: cell-based
Details: read-out: IC50 Range (representative in vitro IC50 data)
Method in brief: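 Sandwich ELISA for IL-12 (p70, p40) on supernatants collected 18 h after stimulation gave IC50 values; MTS monitored viability. THP-1 cells: IFNγ 100 U/mL priming 22 h, SAC 0.025%. PBMC: IFNγ 30 U/mL for 22 h plus LPS 1 μg/mL, or IFNγ 100 U/mL plus SAC 0.01%. Final DMSO 0.25%.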

Row | pIC50 | SMILES
1 | ≤ 6.00 | O=C(Nc1ccc2[nH]c(C(F)(F)F)nc2c1)c1cc(NCCN2CCOCC2)nc(N2CCOCC2)n1 [Compound 190, 2-morpholino-6-(2-morpholinoethylamino)-N-(2-(trifluoromethyl)-1H-benzo[d]imidazol-5-yl)pyrimidine-4-carboxamide]
2 | ≤ 6.00 | O=C(Nc1ccc2c(C(F)(F)F)cc(=O)oc2c1)c1cc(NCCN2CCOCC2)nc(N2CCOCC2)n1 [Compound 192, 2-morpholino-6-(2-morpholinoethylamino)-N-(2-oxo-4-(trifluoromethyl)-2H-chromen-7-yl)pyrimidine-4-carboxamide]
3 | > 6.00 | CONc1cc(C(=O)Nc2cccc(N(C)C)c2)nc(N2CCOCC2)n1 [Compound 196, N-(3-(dimethylamino)phenyl)-6-(methoxyamino)-2-morpholinopyrimidine-4-carboxamide]
4 | ≤ 6.00 | O=C1Cc2cc(NC(=O)c3cc(OCCN4CCOCC4)nc(N4CCOCC4)n3)ccc2N1 [Compound 197, 2-morpholino-6-(2-morpholinoethoxy)-N-(2-oxoindolin-5-yl)pyrimidine-4-carboxamide]
5 | ≤ 6.00 | CCN(CC)C(=O)Nc1cccc(NC(=O)c2cc(OCCN3CCOCC3)nc(N3CCOCC3)n2)c1 [Compound 198, N-(3-(3,3-diethylureido)phenyl)-2-morpholino-6-(2-morpholinoethoxy)pyrimidine-4-carboxamide]
6 | ≤ 6.00 | O=C1COc2ccc(NC(=O)c3cc(OCCN4CCOCC4)nc(N4CCOCC4)n3)cc2N1 [Compound 199, 2-morpholino-6-(2-morpholinoethoxy)-N-(3-oxo-3,4-dihydro-2H-benzo[b][1,4]oxazin-6-yl)pyrimidine-4-carboxamide]
7 | ≤ 6.00 | COCCN(C)c1cc(C(=O)Nc2ccc3c(c2)OCCO3)nc(N2CCOCC2)n1 [Compound 200, N-(2,3-dihydrobenzo[b][1,4]dioxin-6-yl)-6-((2-methoxyethyl)(methyl)amino)-2-morpholinopyrimidine-4-carboxamide]
8 | ≤ 6.00 | COCCN(C)c1cc(C(=O)Nc2nc(C(C)(C)C)cs2)nc(N2CCOCC2)n1 [Compound 201, N-(4-tert-butylthiazol-2-yl)-6-((2-methoxyethyl)(methyl)amino)-2-morpholinopyrimidine-4-carboxamide]
9 | > 6.00 | COCCN(C)c1cc(C(=O)Nc2cccc(C(C)C)c2)nc(N2CCOCC2)n1 [Compound 205, N-(3-isopropylphenyl)-6-((2-methoxyethyl)(methyl)amino)-2-morpholinopyrimidine-4-carboxamide]
10 | ≤ 6.00 | COCCN(C)c1cc(C(=O)Nc2cccc(-c3nncn3C)c2)nc(N2CCOCC2)n1 [Compound 208, 6-((2-methoxyethyl)(methyl)amino)-N-(3-(4-methyl-4H-1,2,4-triazol-3-yl)phenyl)-2-morpholinopyrimidine-4-carboxamide]
11 | ≤ 6.00 | COCCN(C)c1cc(C(=O)Nc2cccc(C(F)(F)F)c2)nc(N2CCOCC2)n1 [Compound 209, 6-((2-methoxyethyl)(methyl)amino)-2-morpholino-N-(3-(trifluoromethyl)phenyl)pyrimidine-4-carboxamide]
12 | > 6.00 | COCCN(C)c1cc(C(=O)Nc2ccc3c(c2)N(C)CC3)nc(N2CCOCC2)n1 [Compound 211, 6-((2-methoxyethyl)(methyl)amino)-N-(1-methylindolin-6-yl)-2-morpholinopyrimidine-4-carboxamide]
13 | ≤ 6.00 | COCCN(C)c1cc(C(=O)Nc2cc(N(C)C)ccc2F)nc(N2CCOCC2)n1 [Compound 212, N-(5-(dimethylamino)-2-fluorophenyl)-6-((2-methoxyethyl)(methyl)amino)-2-morpholinopyrimidine-4-carboxamide]
14 | ≤ 6.00 | CC(C)c1cccc(NC(=O)c2cc(OCCN3CCOCC3)nc(N3CCOCC3)n2)c1 [Compound 213, N-(3-isopropylphenyl)-2-morpholino-6-(2-morpholinoethoxy)pyrimidine-4-carboxamide]
15 | ≤ 6.00 | Cn1ncc2ccc(NC(=O)c3cc(OCCN4CCOCC4)nc(N4CCOCC4)n3)cc21 [Compound 216, N-(1-methyl-1H-indazol-6-yl)-2-morpholino-6-(2-morpholinoethoxy)pyrimidine-4-carboxamide]
16 | ≤ 6.00 | COCCN(C)c1cc(C(=O)Nc2ccc3cnn(C)c3c2)nc(N2CCOCC2)n1 [Compound 217, 6-((2-methoxyethyl)(methyl)amino)-N-(1-methyl-1H-indazol-6-yl)-2-morpholinopyrimidine-4-carboxamide]
17 | > 6.00 | CCn1ccc2ccc(NC(=O)c3cc(OCCN4CCOCC4)nc(N4CCOCC4)n3)cc21 [Compound 220, N-(1-ethyl-1H-indol-6-yl)-2-morpholino-6-(2-morpholinoethoxy)pyrimidine-4-carboxamide]
18 | > 6.00 | CCc1c(C)[nH]c2ccc(NC(=O)c3cc(OCCN4CCOC4=O)nc(N4CCOCC4)n3)cc12 [Compound 222, 2-Morpholin-4-yl-6-[2-(2-oxo-oxazolidin-3-yl)-ethoxy]-pyrimidine-4-carboxylic acid (3-ethyl-2-methyl-1H-indol-5-yl)-amide]

Second part, the compound before the results:

Row | SMILES | pIC50
19 | O=C(Nc1ccc(C(F)(F)F)cc1)c1cc(NCCN2CCOCC2)nc(N2CCOCC2)n1 [Compound 191, 2-morpholino-6-(2-morpholinoethylamino)-N-(4-(trifluoromethyl)phenyl)pyrimidine-4-carboxamide] | ≤ 6.00
20 | CON(C)c1cc(C(=O)Nc2ccc3[nH]c(C)c(C)c3c2)nc(N2CCOCC2)n1 [Compound 193, N-(2,3-dimethyl-1H-indol-5-yl)-6-(methoxy(methyl)amino)-2-morpholinopyrimidine-4-carboxamide] | > 6.00
21 | Cc1[nH]c2ccc(NC(=O)c3cc(NCCO)nc(N4CCOCC4)n3)cc2c1C [Compound 194, N-(2,3-dimethyl-1H-indol-5-yl)-6-(2-hydroxyethylamino)-2-morpholinopyrimidine-4-carboxamide] | > 6.00
22 | CON(CCN1CCOCC1)c1cc(C(=O)Nc2ccc3[nH]c(C)c(C)c3c2)nc(N2CCOCC2)n1 [Compound 195, N-(2,3-dimethyl-1H-indol-5-yl)-6-(methoxy(2-morpholinoethyl)amino)-2-morpholinopyrimidine-4-carboxamide] | > 6.00
23 | COCCN(C)c1cc(C(=O)Nc2ccc3nc(C)ccc3c2)nc(N2CCOCC2)n1 [Compound 202, 6-((2-methoxyethyl)(methyl)amino)-N-(2-methylquinolin-6-yl)-2-morpholinopyrimidine-4-carboxamide] | ≤ 6.00
24 | COCCN(C)c1cc(C(=O)Nc2nc3cc(C)c(C)cc3s2)nc(N2CCOCC2)n1 [Compound 203, N-(5,6-dimethylbenzo[d]thiazol-2-yl)-6-((2-methoxyethyl)(methyl)amino)-2-morpholinopyrimidine-4-carboxamide] | ≤ 6.00
25 | CCOc1cc(N2CCOCC2)c(OCC)cc1NC(=O)c1cc(N(C)CCOC)nc(N2CCOCC2)n1 [Compound 204, N-(2,5-diethoxy-4-morpholinophenyl)-6-((2-methoxyethyl)(methyl)amino)-2-morpholinopyrimidine-4-carboxamide] | ≤ 6.00
26 | COCCN(C)c1cc(C(=O)Nc2ccc3c(c2)CCN3C(C)=O)nc(N2CCOCC2)n1 [Compound 206, N-(1-acetylindolin-5-yl)-6-((2-methoxyethyl)(methyl)amino)-2-morpholinopyrimidine-4-carboxamide] | ≤ 6.00
27 | COCCN(C)c1cc(C(=O)Nc2cccc(-c3nc(C)no3)c2)nc(N2CCOCC2)n1 [Compound 207, 6-((2-methoxyethyl)(methyl)amino)-N-(3-(3-methyl-1,2,4-oxadiazol-5-yl)phenyl)-2-morpholinopyrimidine-4-carboxamide] | ≤ 6.00
28 | COCCN(C)c1cc(C(=O)Nc2ccc3c(c2)OCO3)nc(N2CCOCC2)n1 [Compound 210, N-(benzo[d][1,3]dioxol-5-yl)-6-((2-methoxyethyl)(methyl)amino)-2-morpholinopyrimidine-4-carboxamide] | ≤ 6.00
29 | CN1CCc2ccc(NC(=O)c3cc(OCCN4CCOCC4)nc(N4CCOCC4)n3)cc21 [Compound 214, N-(1-methylindolin-6-yl)-2-morpholino-6-(2-morpholinoethoxy)pyrimidine-4-carboxamide] | > 6.00
30 | COCCN(C)c1cc(C(=O)Nc2ccc(F)c(N(C)C)c2)nc(N2CCOCC2)n1 [Compound 215, N-(3-(dimethylamino)-4-fluorophenyl)-6-((2-methoxyethyl)(methyl)amino)-2-morpholinopyrimidine-4-carboxamide] | > 6.00
31 | Cn1c(=O)oc2ccc(NC(=O)c3cc(OCCN4CCOCC4)nc(N4CCOCC4)n3)cc21 [Compound 218, N-(3-methyl-2-oxo-2,3-dihydrobenzo[d]oxazol-5-yl)-2-morpholino-6-(2-morpholinoethoxy)pyrimidine-4-carboxamide] | > 6.00
32 | CN1C(=O)C(C)(C)c2cc(NC(=O)c3cc(OCCN4CCOCC4)nc(N4CCOCC4)n3)ccc21 [Compound 219, 2-morpholino-6-(2-morpholinoethoxy)-N-(1,3,3-trimethyl-2-oxoindolin-5-yl)pyrimidine-4-carboxamide] | > 6.00
33 | CCN1CCc2ccc(NC(=O)c3cc(OCCN4CCOCC4)nc(N4CCOCC4)n3)cc21 [Compound 221, N-(1-ethylindolin-6-yl)-2-morpholino-6-(2-morpholinoethoxy)pyrimidine-4-carboxamide] | > 6.00
34 | O=C(Nc1ccc2[nH]c3c(c2c1)CCCC3)c1cc(OCCN2CCOC2=O)nc(N2CCOCC2)n1 [Compound 223, 2-Morpholin-4-yl-6-[2-(2-oxo-oxazolidin-3-yl)-ethoxy]-pyrimidine-4-carboxylic acid (6,7,8,9-tetrahydro-5H-carbazol-3-yl)-amide] | > 6.00
35 | COCCN(C)c1cc(C(=O)Nc2cc(C(C)(C)C)ccc2O)nc(N2CCOCC2)n1 [Compound 225, 6-[(2-Methoxy-ethyl)-methyl-amino]-2-morpholin-4-yl-pyrimidine-4-carboxylic acid (5-tert-butyl-2-hydroxy-phenyl)-amide] | ≤ 6.00
